# Where a name gives a salt, the structure may show the parent alone.
# What was measured:
# [1] = test system: CGS 21680-induced catalepsy in mice; assay: Activity on CGS 21680-induced Catalepsy; format: in vivo, mouse (male ddY); conditions: 10 mg/kg oral; for Total score (catalepsy): 10 animals, maximum 50 points, control 48; for Number of Animals showing remission: catalepsy score 4 points or less in 10 cases; for inhibition in vivo at 10 mg/kg: Mus musculus, CGS 21680-induced catalepsy, read-out: Remission ratio (%)
# Summary of the method: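 Male ddY mice (5 weeks, 10 per group) received CGS 21680 10 μg/20 μl intracerebroventricularly; test compounds given orally at 10 mg/kg in 0.3% Tween 80 suspension. Catalepsy scored 1 h after dosing on a 4.5 cm bar; total group score (maximum 50) compared with control; ≤4 per animal counted as remission.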
# [2] = test system: immobility time in forced swimming of mice; assay: Forced Swimming Method (measurement of immobility time); format: in vivo, mouse (male ddY); conditions: 10 mg/kg oral, Steel-test vs solvent control
# Protocol: Forced Swimming Method (measurement of immobility time)
# Ten animals per group of ddY male mice (21 to 26 g in body weight, Japan SLC) were used as the experimental animal. During the preliminary feeding period, they were allowed to have feed and water freely in an animal room of a room temperature of 23±1° C. and a humidity of 55±5%. […] The drugs to be tested were suspended in a 0.3% Tween 80 solution and orally administered one hour before the test. In the negative control group, 10 ml/kg of the 0.3% Tween 80 solution alone was orally administered. Measurement of immobility time was carried out in accordance with the method of Porsolt [Arch. int Pharmacodyn., 229: 327-336 (1977)]. That is, a cylindrical transparent acrylic water tank (10 cm in diameter and 25 cm in height) was filled with 9 cm in depth of water having a temperature of 23±1° C., and mice were forced to swim for 6 minutes. When mice are put into water, they immediately start to swim trying to escape from the tank, but the motion gradually decreases 1 to 2 minutes thereafter. […] In order to reduce effects of daily rhythm, the test was carried out by using 5 of the 10 animals per group in the morning, and the remaining 5 animals in the afternoon. Further, measurement of immobility time was carried out by observing 2 animals at the same time and by not telling the observers distinctions about the solvent-administered group and doses of administered test drugs. Statistical analysis of the results was carried out by a multiple comparison test of the solvent-administered control group and each of the test drug-administered groups by Steel-test.
# adenosine A2A receptor = target: T1, adenosine A2A receptor (Rattus norvegicus, UniProt P30543); assay: Adenosine receptor binding activity (adenosine A2A receptor binding test), 3H-CGS 21680 binding; conditions: 2 h, read-out: A2A receptor inhibition ratio (%); for inhibition at 0.1 µM: 10^-7 M; for inhibition at 0.01 µM: 10^-8 M
# T1 construct: from tissue; host or cells: rat corpus striatum, washed membrane suspension
# T1 sequence (P30543 whole entry): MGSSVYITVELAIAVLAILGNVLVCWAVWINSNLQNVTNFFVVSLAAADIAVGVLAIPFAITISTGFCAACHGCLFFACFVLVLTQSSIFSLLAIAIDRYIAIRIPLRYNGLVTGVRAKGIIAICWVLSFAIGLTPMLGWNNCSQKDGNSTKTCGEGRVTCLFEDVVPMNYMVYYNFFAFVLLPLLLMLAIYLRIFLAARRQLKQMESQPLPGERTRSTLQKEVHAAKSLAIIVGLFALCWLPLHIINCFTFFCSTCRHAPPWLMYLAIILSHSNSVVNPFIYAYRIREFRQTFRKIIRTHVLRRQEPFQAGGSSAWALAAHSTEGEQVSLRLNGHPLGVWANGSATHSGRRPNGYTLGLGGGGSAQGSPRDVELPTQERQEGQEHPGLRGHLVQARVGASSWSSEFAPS
# Summary of the method: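 Rat corpus striatum membranes (5 mg wet tissue/mL in 50 mM Tris-HCl pH 7.7, 10 mM MgCl2, adenosine deaminase) incubated with 4.0 nM 3H-CGS 21680 and test compound for 120 min at 25 °C, then filtered and counted. Nonspecific binding defined with 100 μM CPA; % inhibition of specific binding calculated.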
# [3] = test system: learned helplessness model in rats; assay: Activity in Learned Helplessness (LH) Model; format: in vivo, rat (male SD); conditions: 5.0 mg/kg po, electric shock (IES) loaded, Average % ± SE
# Protocol: Activity in Learned Helplessness (LH) Model
# As experimental animals, 10 to 15 animals per group of SD male rats (220 to 320 g in body weight, 7 week age, Charles River Japan, Atsugi) were used. During the preliminary feeding period, they were allowed to have feed (CRF-1, Oriental Yeast, Tokyo) and water (tap water) freely in an animal room at a room temperature of 22 to 24° C. and a humidity of 50 to 60%. The test compound was orally administered in a dose of 2 ml/kg and 1 hour before FR 1 (fixed ratio schedule 1: repetition of fixed trial conditions) on the second day of the test.
# 2) Preparation of Learned Helplessness Model
# A shuttle box apparatus (TK-401S; manufactured by UNICOM, Chiba) was used as the learning test apparatus. […]
# On the second day, a shuttle box test was carried out by slightly modifying the method of Maier et al. [J. Comp. […] The escape reaction was judged success when both of the two escape times in FR 2 were less than 10 seconds, and the escape response was calculated by the following formula: "the number of trials of successful escape/15×100=escape response (%)" Further, migration in the box other than the escape reaction observed during a period between trials (resting time) was used as an index of psychomotor stimulant action by calculating "total number of migration in the box/15×100=intertrial response (%)" […]
# [4] = test system: common marmoset MPTP-treated Parkinson's disease model; assay: Activity in a Parkinson's Disease Model (common marmoset treated with MPTP); format: in vivo
# [5] = test system: haloperidol-induced catalepsy in mice; assay: Activity on haloperidol-induced Catalepsy; format: in vivo, mouse (male ddY); conditions: 10 mg/kg oral; for Total score (catalepsy): 10 animals, maximum 50 points, control 50; for Number of Animals showing remission: catalepsy score 4 points or less in 10 cases; for Remission ratio (%): haloperidol-induced catalepsy
# Protocol: Activity on haloperidol-induced Catalepsy
# Parkinson's disease is a disease based on the degeneration and cell death of the nigrostriatal dopaminergic neuron. When haloperidol (dopamine D1/D2 antagonist) is administered, catalepsy is induced by the block of postsynaptic D2 receptor. This haloperidol-induced catalepsy is known as a classic model in which symptoms of Parkinson's disease are produced by drug administration [European Journal of Pharmacology, 182: 327 (1990) and U.S. Pat. No. 3,991,207].
# This test was carried out using 10 animals per group of male ddY mice of 5 week age (22 to 24 g in body weight, Japan SLC). Haloperidol (manufacturedby Janssen) was suspended in 0.3% CMC and administered intraperitoneally into mice at a dose of 1.0 mg/kg. Each test compound was used by mixing it with Tween 80 and then suspending it in distilled water for injection (manufactured by Otsuka Pharmaceutical). Also, L-DOPA (manufactured by Kyowa Hakko Kogyo Co., Ltd.) and benserazide HCl (manufactured by Kyowa Hakko Kogyo Co., Ltd.) were used by suspending them in 0.3% CMC. […] All of the test compounds were administered orally in a dose of 10 mg/kg, and 100 mg/kg of L-DOPA and 25 mg/kg of benserazide were used in combination as a control drug and administered by intraperitoneal injection. The catalepsy score was evaluated by the judging criteria shown in the above-described Table 3.
# The effect was judged by total catalepsy scores of 10 animals in one group (the maximum is 50 points). When the total score was 40 points or less, the activity of drugs was judged positive. The number of animals showing remission of catalepsy was expressed by the number of cases in which the catalepsy score was 4 points or less in 10 cases. The catalepsy remission ratio was expressed as the percentage of the total score in the test compound-administered group to the total score in the control group.
# [6] = test system: clonidine-induced aggressive behavior in mice; assay: Activity on Clonidine-induced Aggressive Behavior; format: in vivo, mouse (male ddY); conditions: 10 mg/kg po; for Number of attacks (count; average ± S.E.M.), test compound group: *: p < 0.05, 10 animals
# Protocol: Activity on Clonidine-induced Aggressive Behavior
# Effect of test compounds to increase aggressive behavior induced by the intraperitoneal injection of clonidine [European Journal of Pharmacology, 29: 374 (1968)] was examined.
# This test was carried out using 2 animals per group of male ddY mice of 20 to 25 g in body weight (Japan SLC). Each test compound was used by mixing it with Tween 80 and then suspending it in distilled water for injection (manufactured by Otsuka Pharmaceutical), and clonidine hydrochloride (manufactured by Sigma Co.) was used by dissolving it in physiological saline (manufactured by Otsuka Pharmaceutical). […] The number of aggressive behavior of each mouse was measured for 30 minutes immediately after the administration of clonidine. The effect was judged by comparing values of the number of aggressive behavior in the control and those in test compound-administered groups (significance test: Student t-test).
inhibition at 0.1 µM (adenosine A2A receptor),inhibition at 0.01 µM (adenosine A2A receptor),SMILES,Total score (catalepsy) [1],Number of Animals showing remission [1],inhibition in vivo at 10 mg/kg [1],Immobility time-shortening activity [2],Intertrial response [3],Escape response ([3]; **: p < 0.01 vs loaded control),"Total spontaneous motor count ([4]; FIG. 2, common marmoset treated with MPTP)",Efficacy in the common marmoset MPTP-treated Parkinson's disease model ([4]; total Parkinson's disease symptom score and locomotor count vs vehicle),Total score (catalepsy) [5],Number of Animals showing remission [5],Remission ratio (%) [5],Number of attacks in test compound group/number of attacks in control group [6],"Number of attacks (count; average ± S.E.M.), test compound group [6]"
52%,,"Nc1nc(N2CCN(CC#Cc3ccccc3)CC2)cc2nc(-c3ccco3)nn12 [Compound 89, 5-Amino-2-(2-furyl)-7-(4-(3-phenylpropargyl)piperazinyl)[1,2,4]triazolo[1,5-c]pyrimidine hydrochloride]",15,10,68%,Significant immobility time-shortening activity was observed,,,,,,,,,
82%,31%,"Nc1nc(N2CCN(CCCc3ccccc3)CC2)cc2nc(-c3ccco3)nn12 [Compound 63, 5-Amino-2-(2-furyl)-7-[4-(3-phenylpropyl)piperazinyl][1,2,4]triazolor[1,5-c]pyrimidine]",7,10,84%,,,,increase,effective,,,,,
57%,,"Nc1nc(N2CCN(C/C=C/c3ccccc3)CC2)cc2nc(-c3ccco3)nn12 [Compound 88, 5-Amino-7-(4-trans-cinnamylpiperazinyl)-2-(2-furyl)[1,2,4]triazolo[1,5-c]pyrimidine]",0,10,98%,Significant immobility time-shortening activity was observed,,,,,,,,,
50%,11%,"CN1CCN(c2cc3nc(-c4ccco4)nn3c(N)n2)CC1 [Compound 40, 5-Amino-2-(2-furyl)-7-(4-methylpiperazinyl)[1,2,4]triazolo[1,5-c]pyrimidine]",20,10,56%,,,,,,18,7,64%,7.6,22.00 ± 6.44 count

# The next lines start with the compound.
SMILES,inhibition at 0.1 µM (adenosine A2A receptor),inhibition at 0.01 µM (adenosine A2A receptor),Total score (catalepsy) [1],Number of Animals showing remission [1],inhibition in vivo at 10 mg/kg [1],Immobility time-shortening activity [2],Intertrial response [3],Escape response ([3]; **: p < 0.01 vs loaded control),"Total spontaneous motor count ([4]; FIG. 2, common marmoset treated with MPTP)",Efficacy in the common marmoset MPTP-treated Parkinson's disease model ([4]; total Parkinson's disease symptom score and locomotor count vs vehicle),Total score (catalepsy) [5],Number of Animals showing remission [5],Remission ratio (%) [5],Number of attacks in test compound group/number of attacks in control group [6],"Number of attacks (count; average ± S.E.M.), test compound group [6]"
"CNC(=O)c1cnc(N)n2nc(-c3ccco3)nc12 [Compound 167, 5-Amino-2-(2-furyl)-8-methylcarbamoyl[1,2,4]triazolo[1,5-c]pyrimidine]",90%,,9,10,82%,Significant immobility time-shortening activity was observed,,,,,,,,,
"Nc1nc(N2CCN(C(=O)c3ccccc3)CC2)cc2nc(-c3ccco3)nn12 [Compound 45, 5-Amino-7-(4-benzoylpiperazinyl)-2-(2-furyl)[1,2,4]triazolo[1,5-c]pyrimidine]",,,,,,,6.7 ± 3.8%,64 ± 9.8%,,,,,,,
"CC(C)NC(=O)c1cnc(N)n2nc(-c3ccco3)nc12 [Compound 165, 5-Amino-2-(2-furyl)-8-isopropylcarbamoyl[1,2,4]triazolo[1,5-c]pyrimidine]",103%,,13,9,74%,Significant immobility time-shortening activity was observed,,,,,,,,,
"COc1ccc(Oc2cc3nc(-c4ccco4)nn3c(N)n2)cc1OC [Compound 31, 5-Amino-7-(3,4-dimethoxyphenoxy)-2-(2-furyl)[1,2,4]triazolo[1,5-c]pyrimidine]",,,28,9,42%,,,,,,15,10,70%,9.1,38.1 ± 13.06 count

# Reference: patent publication US6222035A, “[1,2,4] triazolo [1,5-C] pyrimidine derivatives” (Kyowa Hakko Kogyo Co., Ltd., priority 1997, dated 2001)
